Measured values from ChEMBL document CHEMBL3808389, “Stable and biocompatible cystine knot peptides from the marine sponge Asteropus sp” (Bioorg Med Chem, 2016).
Where a SMILES comes first, the peptide text is derived from it. Bridges are numbered along the chain shown (N, C = ends). [ ]: non-standard residue; d: D form. ξ: configuration not given here. ξpGlu = O=C1CCC(C(=O)O)N1

How the values were obtained:
[1] = tested on: RAW264.7; assay: Cytotoxicity against mouse RAW264.7 cells assessed as cell viability at 10 or 40 ug/ml measured after 24 hrs by WST assay; assay type: cell-based; conditions: raw264.7, 24 h
[2] = Toxicity in human RBC assessed as hemolytic activity at 50 uM measured after 1 hr by spectrophotometric analysis; assay type: cell-based, Erythrocyte; conditions: for Activity: erythrocyte, 1 h, 50 µM
[3] = tested on: RAW264.7; assay: Toxicity in mouse RAW264.7 cells assessed as in induction of Nitric oxide production at 10 or 40 ug/ml measured after 24 hrs by Griess reaction method; assay type: cell-based; conditions: raw264.7, 24 h
[4] = Toxicity in Thamnaconus modestus RBC assessed as hemolytic activity at 0.08 to 50 uM measured after 1 hr by spectrophotometric analysis; assay type: cell-based; conditions: erythrocyte
[5] = Thermal stability in Tris-acetate-EDTA buffer of pH 8.3 at 100 degC measured upto 12 hrs by reverse-phase HPLC analysis; assay type: physicochemical; conditions: pH 8.3, 12 h

Compound | Activity [1] | Activity [2] | Activity [3] | Activity [4] | Stability [5] | hemolysis at 1 h, 50 µM ([2]; red blood cells, read-out: Activity)
CC[C@H](C)[C@@H]1NC(=O)CNC(=O)CNC(=O)[C@@H]2CCCN2C(=O)[C@H](CC(=O)O)NC(=O)CNC(=O)[C@@H]2CCCN2C(=O)[C@H](Cc2ccc(O)cc2)NC(=O)[C@@H]2CSSC[C@@H]3NC(=O)[C@H](CCC(=O)O)NC(=O)[C@H](CCC(=O)O)NC(=O)CNC(=O)[C@@H]4CCCN4C(=O)CNC(=O)[C@H](C)NC(=O)[C@@H](NC(=O)CNC(=O)C4CCC(=O)N4)CSSC[C@H](NC(=O)[C@H](CSSC[C@@H](C(=O)N[C@@H](Cc4ccc(O)cc4)C(=O)O)NC1=O)NC(=O)[C@H](CC(=O)O)NC(=O)[C@H](Cc1ccc(O)cc1)NC(=O)[C@H](Cc1ccccc1)NC(=O)CNC(=O)[C@H](C(C)C)NC(=O)[C@H]([C@@H](C)CC)NC3=O)C(=O)N1CCC[C@H]1C(=O)NCC(=O)N[C@@H](Cc1ccc(O)cc1)C(=O)N[C@@H](CCCNC(=N)N)C(=O)N2 (stereo partly drawn) ([ξpGlu]GCAGPGEECIVGFYDCCPGYRCYPGDPGGICY-OH; disulfide 3-18, 10-23, 17-32) | Non-toxic | Non-toxic | Non-toxic | Non-toxic |  | 
CC[C@H](C)[C@H](NC(=O)[C@@H](NC(=O)[C@H](Cc1ccc(O)cc1)NC(=O)[C@@H]1CSSC[C@@H]2NC(=O)[C@@H]3CCCN3C(=O)[C@H](CC(N)=O)NC(=O)[C@H](Cc3ccccc3)NC(=O)[C@H](CCC(=O)O)NC(=O)[C@H](C(C)C)NC(=O)[C@H](CC(=O)O)NC(=O)[C@@H]3CSSC[C@H](NC(=O)[C@H]([C@H](C)O)NC(=O)[C@H](CC(C)C)NC(=O)[C@@H]4CCCN4C(=O)[C@@H]4CCCN4C(=O)[C@H](CSSC[C@H](N)C(=O)N4CCC[C@H]4C(=O)NCC(=O)N[C@@H](CCC(=O)O)C(=O)NCC(=O)N[C@@H](CCC(=O)O)C(=O)N[C@@H](CCC(N)=O)C(=O)N3)NC2=O)C(=O)N[C@@H]([C@@H](C)CC)C(=O)N2CCC[C@H]2C(=O)NCC(=O)N[C@@H](CC(=O)O)C(=O)N2CCC[C@H]2C(=O)N[C@@H](Cc2ccc(O)cc2)C(=O)NCC(=O)N[C@@H]([C@@H](C)CC)C(=O)N1)[C@@H](C)CC)C(=O)O | Non-toxic | Non-toxic | Non-toxic | Non-toxic | Stable | 
CC(C)C[C@@H]1NC(=O)CNC(=O)[C@H](CC(N)=O)NC(=O)[C@H](CCCNC(=N)N)NC(=O)[C@H]([C@@H](C)O)NC(=O)[C@@H]2CSSC[C@@H]3NC(=O)[C@H]([C@@H](C)O)NC(=O)CNC(=O)CNC(=O)[C@H](C(C)C)NC(=O)[C@@H]4CSSC[C@H](NC(=O)[C@H]([C@@H](C)O)NC(=O)[C@H](CSSC[C@H](NC(=O)[C@H](C(C)C)NC(=O)[C@@H]5CCCN5C1=O)C(=O)NCC(=O)N[C@@H](CCC(=O)O)C(=O)N[C@@H]([C@@H](C)O)C(=O)N4)NC(=O)CNC(=O)[C@@H]1CCCN1C(=O)[C@H]([C@@H](C)O)NC(=O)[C@H](CC(N)=O)NC3=O)C(=O)N[C@@H](CO)C(=O)N[C@@H](Cc1c[nH]c3ccccc13)C(=O)N1CCC[C@H]1C(=O)N[C@@H](C(C)C)C(=O)N2 |  |  |  |  | Stable | 74%
CC[C@H](C)[C@@H]1NC(=O)[C@@H]2CSSC[C@@H]3NC(=O)[C@H](CO)NC(=O)[C@H](CCC(=O)O)NC(=O)CNC(=O)[C@H](CCC(=O)O)NC(=O)[C@H](Cc4ccccc4)NC(=O)[C@H](C)NC(=O)[C@@H](NC(=O)CNC(=O)C4CCC(=O)N4)CSSC[C@H](NC(=O)[C@H](CSSC[C@@H](C(=O)N[C@@H](Cc4ccc(O)cc4)C(=O)N[C@@H](Cc4ccc(O)cc4)C(=O)N[C@@H](CC(C)C)C(=O)O)NC(=O)[C@H]([C@@H](C)O)NC(=O)CNC(=O)[C@H](CC(=O)O)NC(=O)[C@@H]4CCCN4C(=O)[C@H](CC(N)=O)NC(=O)CNC(=O)[C@@H]4CCCN4C1=O)NC(=O)[C@@H]1CCCN1C(=O)[C@H](Cc1ccc(O)cc1)NC(=O)[C@H](Cc1ccccc1)NC(=O)[C@H](CCC(=O)O)NC(=O)[C@H](C(C)C)NC(=O)[C@H](CC(N)=O)NC3=O)C(=O)N1CCC[C@H]1C(=O)NCC(=O)N[C@@H](CC(C)C)C(=O)NCC(=O)N[C@@H](CC(C)C)C(=O)N[C@@H]([C@@H](C)O)C(=O)N2 (stereo partly drawn) ([ξpGlu]GCAFEGESCNVEFYPCCPGLGLTCIPGNPDGTCYYL-OH; disulfide 3-18, 10-25, 17-34) |  | Non-toxic |  | Non-toxic |  | 
